According to PubChem BioAssay AID1601:
Inconclusive results are not listed. Where a SMILES comes first, the peptide text is derived from it.

These molecules were tested on mutant SOD1 cell death rescue, 1 uM (assay: protection from mutant SOD1-driven cell killing (AID 1601)).
Work on CC[C@@H](CO)NCCN[C@@H](CC)CO yielded an EC50 of 2.9 µM.
CC(C)COCC(CN(Cc1ccccc1)c1ccccc1)N1CCCC1 (centres undefined) was tested, and the EC50 was 1 µM.
Molecule CC(C)=CCC/C(C)=C/CO has an EC50 of 1.2 µM.
For CC(=O)NS(=O)(=O)c1ccc(N)cc1, the EC50 was 2.1 µM.
CCCC(CCC)C(=O)O was tested, and the EC50 was 0.7 µM.
NCCCCC(N)C(=O)NC(Cc1c[nH]c2ccccc12)C(=O)NC(CCCCN)C(=O)O (stereo not drawn) (H-Lys-Trp-Lys-OH; configuration not given here) gave an EC50 of 8.6 µM.
CC(C)NCC(O)c1ccc(O)c(O)c1 (centres undefined) was tested, and the EC50 was 1 µM.
CC[C@H]1OC(=O)[C@H](C)[C@@H](O[C@H]2C[C@@](C)(OC)[C@@H](O)[C@H](C)O2)[C@H](C)[C@@H](O[C@@H]2O[C@H](C)C[C@H](N(C)C)[C@H]2O)[C@](C)(O)C[C@@H](C)CN(C)[C@H](C)[C@@H](O)[C@]1(C)O showed an EC50 of 0.9 µM.
Cc1cc(C(C)(C)CC(C)(C)C)ccc1OCCOCC[N+](C)(C)Cc1ccccc1 gave an EC50 of 0.1 µM.
